Data as given in patent US5688824A, “Use of leflunomide to prevent or control xenograft rejection” (priority 1996, dated 1997).
“Also recorded” adds a separate entry of the source.

Key:
[1] = test system: chronic rejection of rat cardiac allografts; experiment: chronic rejection of rat cardiac allografts (LEW to F-344), histologic scoring of arterial intimal thickening; format: in vivo
Method: These rats share major histocompatibility antigens but differ at minor histocompatibility loci. A short course of immunosuppression results in a slow chronic rejection that gradually destroys the graft, with the appearance of reproducible histology similar to the chronic rejection seen in humans.
Donor and recipient animals were anesthetized with Ketamine/Xylazine (Fort Dodge, Iowa) 100/5 mg/kg. […] Cardiac allograft survival was determined by daily abdominal palpation, and rejection was considered complete upon cessation of heart beat.
The three control groups were given no treatment and were sacrificed at designated 30-day intervals to observe the development of chronic rejection. The treatment groups were administered daily doses of leflunomide or leflunomide and CsA according to Table 1 below, beginning at day 30 and continuing to day 60 or day 90. CsA in oral form (Sandimmune, Sandoz Corporation, East Hanover, N.J.) was administered at 2, 5 or 10 mg/kg to rats by gavage.
Upon sacrifice, the heart allograft was removed, serially sectioned into approximately 2-mm slices, and fixed in 10% buffered formalin overnight. The sections were embedded in paraffin and stained with hematoxylin and eosin, Verhoeff's elastin stain and Masson's trichrome stain to evaluate pathologic changes and to score graft arterial intimal thickening. The remaining sections were immunostained using standard indirect avidin-biotin techniques (Vectastain ABC-Elite, Vector Laboratories, Burlingame, Calif.) with monoclonal antibodies against smooth muscle actin (DAKO, Carpin Terra, Calif.) to evaluate intimal smooth muscle proliferation, and with polyclonal antibodies against phosphotyrosine to evaluate tyrosine kinase activity by counting phosphotyrosine positive cells. […] Allospecific antibody titres among the groups were compared using the unpaired Student's t-test.
The sections were examined by light microscopy, and 20 to 70 arteries in each allograft were blindly scored for severity of arterial intimal thickening according to the general standard of Adams et al., supra, using the following histological scores: a score of 0 was a normal artery; a score of 1, intimal thickening up to approximately 50% of the perimeter of the vessel, with less than 20% luminal compromise; a score of 2, intimal thickening involving between 50% and 100% of the perimeter of the vessel, with less than 20% luminal compromise; score of 3, circumferential intimal thickening, with more than 20% but less than 50% luminal compromise; score of 4, circumferential intimal thickening, with more than 50% but less than 80% luminal compromise; score of 5, circumferential intimal thickening, with more than 80% luminal compromise. […] Statistical comparisons of histological scores were performed using the Mann-Whitney U--Wilcoxon Rank Sum W Test.

[2] = test system: anti-donor specific IgM and IgG; experiment: anti-donor specific IgM and IgG titers by flow cytometry, cardiac xenografts; format: in vivo, rat; conditions: leflunomide alone
Method: Serum samples were obtained from the animals by drawing 0.2 ml of blood from the tail vein at two day intervals, for the first eight days after transplantation, and then at seven day intervals after day 14. Serum samples were stored at -80° C. The anti-donor specific IgM and IgG titers were measured using cervical lymph nodes from hamsters as target cells for flow cytometry. Lymphocytes obtained from the lymph nodes were washed with PBS and suspended at a concentration of 10^7 cells/ml. Aliquots of 50 μl containing ~5×10^5 lymphocytes were incubated with 50 μl of diluted sera (diluted 1:25 in phosphate buffered saline) for 30 minutes at 4° C. and then washed twice in 1 ml of PBS. IgM and IgG antibodies were stained by incubating the washed cells for 30 minutes at 4° C. with 50 μl of PBS containing a mixture of labeled goat antibodies specific for rat IgG and rat IgM (Jackson Immunoresearch Labs, Westgrove, Pa.). After staining, the cells were washed twice, fixed in 1% formalin and analyzed on the BPICS-C flow cytometry (Coulter Company), according to Williams et al., Transplantation, 57:1223-1231 (1994).

[3] = test system: rejection of concordant hamster to rat renal xenografts; experiment: hamster to rat concordant renal xenograft rejection; format: in vivo, Golden Syrian hamster donor, LEW rat recipient
Method: Like Example 2, this experiment was also designed to determine a dose response curve using leflunomide as monotherapy, CsA as monotherapy, and both used as combination therapy. End points used to assess efficacy were duration of time to rejection, mortality, and histologic differences among the treatment groups.
Golden Syrian hamsters and LEW rats were maintained as in Example 2, and leflunomide and CsA were administered in the same manner as in Example 2. Renal transplantation was performed using cuffs of aorta and vena cava for vascular anastomosis; the donor ureter bearing a button of bladder was connected to the recipient bladder. Both recipient kidneys were removed at the time of transplantation.
Leflunomide monotherapy was dosed at 2.5, 5, 10 and 15 mg/kg. CsA monotherapy at 10 mg/kg was given to one group. Two groups were given combination therapy of leflunomide 5 mg/kg with CsA 5 mg/kg, and leflunomide 5 mg/kg with CsA 10 mg/kg. Serum creatinine was measured at 7 days and 21 days. Rejection was defined as death of the animal from uremia with histology consistent with immune-mediated injury.
At the death of the animal, the kidney graft was removed, fixed in formalin, and stained with hematoxylin and eosin to determine the extent of pathological change. IgG and IgM staining was also done on formalin-fixed tissue, using ABC Technique as for Example 2.

cytotoxic antibody = experiment: complement-mediated cytotoxicity assay, cardiac xenografts; format: in vivo, rat; conditions: leflunomide therapy
cGvH disease or SLE = conditions: mouse, U.S. Pat. No. 4,965,276; cited from earlier work
glomerulonephritis = conditions: oral 2 mg/kg/day, prophylactic or therapeutic; cited from earlier work
[4] = test system: epidermal growth factor (EGF)-dependent cell growth; conditions: cited from earlier work
EGF receptor kinase = conditions: cited from earlier work
renal allograft = conditions: cited from earlier work
cardiac allograft = conditions: cited from earlier work
[5] = 2.5 mg/kg or 5 mg/kg leflunomide
[6] = 10 mg/kg and 15 mg/kg leflunomide

Cc1oncc1C(=O)Nc1ccc(C(F)(F)F)cc1 [leflunomide, N-(4-trifluoromethylphenyl)-5-methylisoxazol-4-carboxamide]
effect on chronic rejection process ([1]; 5 mg/kg (each) from day 30, 10 mg/kg (each) day 60 to 90): able to halt the progression of chronic rejection and partially reverse the process of arterial thickening | mononuclear cell infiltration, myocardial fibrosis, smooth muscle proliferation ([1]; 5 mg/kg (each) from day 30, 10 mg/kg (each) day 60 to 90, day 90): Interstitial mononuclear cell infiltration and myocardial fibrosis were mild | arterial intimal thickening, change vs control ([1]; 5 mg/kg (each) from day 30, day 60): did not significantly improve by day 60 | Histological Scores (mean vascular histologic score) ([1]; Lef 5 mg/kg day 30 to 60, then 10 mg/kg day 60 to 90, group 8): 1.38±0.92 | Histological Scores (mean vascular histologic score) ([1]; Lef 5 mg/kg day 30 to 60, then 10 mg/kg day 60 to 90, group 8, listed as Lef): 1.4 ± 0.9 | Histological Scores (mean vascular histologic score) ([1]; Lef 5 mg/kg from day 30 to day 60, group 5, sacrificed day 60): 1.55±0.53 | Histological Scores (mean vascular histologic score) ([1]; Lef 5 mg/kg from day 30 to day 60, group 5, sacrificed day 60, listed as Lef): 1.6 ± 0.5 | IgG levels [2]: IgG levels remained at baseline | IgM titres [2]: delayed and slowed the rise of IgM titres, but did not completely suppress IgM rise | effect on survival [3, 5]: did not significantly increase survival time | histopathology [3, 5]: did not significantly alter histopathology compared to controls | mean serum creatinine values vs controls [3, 5]: slightly reduced | effect on survival [3, 6]: statistically significant improvement in survival | histology [3, 6]: the histology did not show significant rejection | Mean Creatinine Day 7 ([3]; Lef 2.5 mg/kg, group 2): 3.6 | Mean Survival ± S.D. ([3]; Lef 2.5 mg/kg, group 2): 8.5 ± 2.1 | Mean Creatinine Day 7 ([3]; Lef 5.0 mg/kg, group 3): 2.7 | Mean Survival ± S.D. ([3]; Lef 5.0 mg/kg, group 3): 7.0 ± 2.6 | Mean Creatinine Day 7 ([3]; Lef 10 mg/kg, group 4): 1.6 | Mean Survival ± S.D. ([3]; Lef 10 mg/kg, group 4): 17.0 ± 8.9 | Mean Creatinine Day 7 ([3]; Lef 15 mg/kg, group 5): 1.2 | Mean Survival ± S.D. ([3]; Lef 15 mg/kg, group 5): 13.2 ± 7.1 | Graft Survival for Each Subject ([3]; Lef 15 mg/kg, group 5, listed as Lef): 17,24 | terminal serum creatinine ([3]; appropriate dose of leflunomide, most of the animals): less than 2.5 | cytotoxic antibody titres (cytotoxic antibody): prevented or reversed the cytotoxic antibody titres | glomerulonephritis, anti-dsDNA titer, GvH index, T-lymphocyte proliferative ability (cGvH disease or SLE): prevented development of glomerulonephritis, reduced anti-dsDNA titer, decreased the GvH index (a measure of relative spleen enlargement), and improved the diminished proliferative ability of T-lymphocytes | inhibition of development of cGvH disease or SLE (cGvH disease or SLE): effective in inhibiting the development of cGvH disease or SLE | effect on glomerulonephritis (glomerulonephritis): effective in both preventing and curing glomerulonephritis; also recorded: significant decrease in total urinary protein, plasma cholesterol and fibrinogen, as well as decreased deposition of fibrin, immunoglobulin G and complement C3 | inhibition of EGF-dependent cell growth [4]: capable of inhibiting epidermal growth factor (EGF)-dependent cell growth | inhibition of EGF receptor kinase (EGF receptor kinase): inhibits the intrinsic EGF receptor kinase | survival (renal allograft; 5 or 10 mg/kg/day by gavage for 30 days): more than 60 days | protection (renal allograft; BN-LEW renal transplant): very similar to the protection attainable with CsA treatment | graft survival vs controls (cardiac allograft; 0.63 to 10 mg/kg/day for 7 days): significantly prolonged graft survival compared to controls | animals with indefinite graft survival (>100 days) (cardiac allograft; 21 days, leflunomide 5 mg/kg/day): three of six animals
